Structures are written as SMILES.

Ki and Activity data for one compound are collected here from ChEMBL document CHEMBL1156728, “Allele-specific inhibition of divergent protein tyrosine phosphatases with a single small molecule” (Bioorg Med Chem, 2008).

The nature of assay [1]: Inhibition of CCPGCC hexapeptide insertion containing TCPTP-187 mutant.
The nature of assay [2]: Inhibition of CCPGCC hexapeptide insertion containing PTP1B-186 mutant.
Assay [3] can be described thus: Inhibition of CCPGCC hexapeptide insertion containing HePTP-211 mutant.
Assay [4] in a line: Inhibition of CCPGCC hexapeptide insertion containing FAP1-2364 mutant.
Assay [5] in a line: Inhibition of CCPGCC hexapeptide insertion containing PTP-PEST-204 mutant.
The nature of assay [6]: Inhibition of CCPGCC hexapeptide insertion containing PTPH1-816 mutant.
Assay [7] is described as follows: Inhibition of CCPGCC hexapeptide insertion containing PTPalpha-406 mutant.
The nature of assay [8]: Inhibition of CCPGCC hexapeptide insertion containing PTPH1-816 mutant at 1 uM. The note with it: TDE = time-dependent effect.
Assay [9] can be described thus: Inhibition of CCPGCC hexapeptide insertion containing PTPalpha-406 mutant at 1 uM. The conditions noted are these: TDE = time-dependent effect.

A word on the Ki: it is the equilibrium dissociation constant of an inhibitor or competing ligand from its target. The low end stands for a stronger hold on the target, the high end for a looser hold on the target. As for `O=C(O)c1ccccc1-c1c2ccc(=O)c([As]3SCCS3)c-2oc2c([As]3SCCS3)c(O)ccc12`, the Ki stood at 17 nM in [1]; 46 nM in assay [2]; 89 nM in [3]; 370 nM in [4]; 53 nM in assay [5]; 38 nM in assay [6]. This compound also returned a Ki in assay [7] of 39 nM. Also, the Activity result in [8] and in assay [9] was “tde” in each case.
